Repolarization time data for seven compounds are collected here from ChEMBL document CHEMBL1124091, “Synthesis, resolution, and absolute configuration of the isomers of the neuronal excitant 1-amino-1,3-cyclopentanedicarboxylic acid” (J Med Chem, 1988).

The assay is described as follows: Repolarization time for compound was measured by pattern firing by APN and KVN blockade. Format: functional. More on the design: unit not given here.
In turn, `N[C@]1(C(=O)O)CC[C@H](C(=O)O)C1` yielded a Repolarization time of 12.7.

`N[C@@]1(C(=O)O)CC[C@H](C(=O)O)C1` (stereo in doubt; cis) showed a Repolarization time of 15.

As to `CN[C@H](CC(=O)O)C(=O)O`, the Repolarization time was 8.

For `N[C@]1(C(=O)O)CC[C@@H](C(=O)O)C1`, the Repolarization time was determined as 10.5.

With `N[C@@]1(C(=O)O)CC[C@H](C(=O)O)C1` (stereo in doubt; trans), the Repolarization time came to 17.

The compound `C=C(C)[C@H]1CN[C@H](C(=O)O)[C@H]1CC(=O)O` came in with a Repolarization time of 19.9.

`N[C@H](Cn1oc(=O)[nH]c1=O)C(=O)O` registered a Repolarization time of 7.8.
